Data reported in ChEMBL document CHEMBL1201862, “PubChem BioAssay data set” (2004).
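Five concentrations, 48 hours, 96-well plates. GI50 = concentration required for 50% inhibition of growth.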 Calls of active or inactive are those of the source. Rule as the data show it: active = GI50 up to about 1.1 µM and inactive = higher.

Legend:
Test in all cases: DTP human tumour cell line panel, 48 h
COLO 205 = test system: COLO 205
HCC 2998 = test system: HCC 2998
HCT-116 = test system: HCT-116
HCT-15 = test system: HCT-15
HL-60 = test system: HL-60
HT-29 = test system: HT-29
K562 = test system: K562
KM-20L2 = test system: KM-20L2
KM12 = test system: KM12
LOX IMVI = test system: LOX IMVI
NCI-H226 = test system: NCI-H226
RPMI-8226 = test system: RPMI-8226
RXF 393 = test system: RXF 393
SK-MEL-2 = test system: SK-MEL-2
SN12C = test system: SN12C
SNB-19 = test system: SNB-19
SR = test system: SR
TK-10 = test system: TK-10
UACC-257 = test system: UACC-257

SMILES	GI50 (COLO 205)	GI50 (HCC 2998)	GI50 (HCT-116)	GI50 (HCT-15)	GI50 (HL-60)	GI50 (HT-29)	GI50 (K562)	GI50 (KM-20L2)	GI50 (KM12)	GI50 (LOX IMVI)	GI50 (NCI-H226)	GI50 (RPMI-8226)	GI50 (RXF 393)	GI50 (SK-MEL-2)	GI50 (SN12C)	GI50 (SNB-19)	GI50 (SR)	GI50 (TK-10)	GI50 (UACC-257)
CC(C)C(Nc1c2ccccc2nc2ccccc12)C(=O)O (stereo unspecified)	70.1 µM (inactive)	> 100 µM (inactive)	43.3 µM (inactive)	> 100 µM	52.6 µM (inactive)	59.7 µM (inactive)	> 100 µM (inactive)	> 100 µM (inactive)	> 100 µM (inactive)	55.1 µM (inactive)	> 100 µM (inactive)	32.5 µM (inactive)	> 100 µM (inactive)	> 100 µM (inactive)	> 100 µM (inactive)	> 100 µM (inactive)	46.5 µM (inactive)	> 100 µM (inactive)	> 100 µM (inactive)
O=C1[C@@H]2C3SC(c4ccccc43)[C@@H]2C(=O)N1c1ccccc1	> 100 µM (inactive)	> 100 µM (inactive)	> 100 µM (inactive)	> 100 µM	> 100 µM (inactive)	> 100 µM (inactive)	> 100 µM (inactive)	> 100 µM (inactive)	> 100 µM (inactive)	> 100 µM (inactive)	> 100 µM (inactive)	> 100 µM (inactive)	> 100 µM (inactive)	> 100 µM (inactive)	> 100 µM (inactive)	41.9 µM (inactive)	> 100 µM (inactive)	97.1 µM (inactive)	> 100 µM (inactive)
CCN(CC)c1ccc2c(c1)N=C1N=CC=CN1C2(c1ccc(N(C)C)cc1)c1ccc(N(C)C)cc1	2.36 µM (inactive)	3.24 µM (inactive)	3.85 µM (inactive)	10.9 µM	1.43 µM (inactive)	3.12 µM (inactive)	2.3 µM (inactive)	2.97 µM (inactive)	4.42 µM (inactive)	5.25 µM (inactive)	10.8 µM (inactive)	2.9 µM (inactive)	8.57 µM (inactive)	12.6 µM (inactive)	5.27 µM (inactive)	11.4 µM (inactive)	3.61 µM (inactive)	13 µM (inactive)	5.24 µM (inactive)
COc1cc2c(c(OC)c1OC)-c1ccc(SC)c(=O)cc1C(CC(=O)Oc1cccc(F)c1)C2 (stereo unspecified)	0.153 µM (active)	0.111 µM (active)	0.321 µM (active)	0.22 µM	0.0906 µM (active)	0.184 µM (active)	0.149 µM (active)	0.0813 µM (active)	0.13 µM (active)	0.197 µM (active)	0.184 µM (active)	0.165 µM (active)	0.129 µM (active)	0.397 µM (active)	0.222 µM (active)	0.667 µM (active)	0.0542 µM (active)	61.7 µM (inactive)	14.9 µM (inactive)
COC(=O)C1=C(c2ccc(OC)c(OC)c2)OC(c2ccc(OC)c(OC)c2)C1 (stereo unspecified)	17.1 µM (inactive)	66.1 µM (inactive)	27.3 µM (inactive)	25.2 µM	9.82 µM (inactive)	22.3 µM (inactive)	32.1 µM (inactive)	39.4 µM (inactive)	32.7 µM (inactive)	19.5 µM (inactive)	37 µM (inactive)	37.6 µM (inactive)	25.6 µM (inactive)	57.9 µM (inactive)	27.9 µM (inactive)	–	18.5 µM (inactive)	43.2 µM (inactive)	36.3 µM (inactive)
COc1ccc(/C=N/N=C(\N)NO)cc1OC	37.5 µM (inactive)	> 100 µM (inactive)	42.8 µM (inactive)	75.2 µM	63.1 µM (inactive)	28.7 µM (inactive)	11.5 µM (inactive)	37.8 µM (inactive)	52.7 µM (inactive)	30.3 µM (inactive)	28.1 µM (inactive)	> 100 µM (inactive)	30.5 µM (inactive)	58.5 µM (inactive)	45.8 µM (inactive)	> 100 µM (inactive)	24.9 µM (inactive)	56.4 µM (inactive)	90.4 µM (inactive)
COC(=O)c1ccccc1/N=C/c1ccc(N(CCC#N)S(=O)(=O)c2ccccc2)cc1	> 100 µM (inactive)	–	> 100 µM (inactive)	> 100 µM	> 100 µM (inactive)	> 100 µM (inactive)	> 100 µM (inactive)	> 100 µM (inactive)	> 100 µM (inactive)	> 100 µM (inactive)	> 100 µM (inactive)	> 100 µM (inactive)	> 100 µM (inactive)	> 100 µM (inactive)	> 100 µM (inactive)	> 100 µM (inactive)	> 100 µM (inactive)	> 100 µM (inactive)	> 100 µM (inactive)
